Experimental data published in ChEMBL document CHEMBL4819016, “2-Propargylamino-naphthoquinone derivatives as multipotent agents for the treatment of Alzheimer's disease” (Eur J Med Chem, 2021).
Active and inactive are the calls of the source. The calls are words filed in the database; no cut-off is given here.

Experiments:
[1] = Cytotoxicity against mouse SIM-A9 cells measured after 24 hrs by MTT assay; type: functional, cell-based; details: SIM-A9, 24 h
[2] = target: T1, Amine oxidase [flavin-containing] A (Homo sapiens, UniProt P21397); experiment: Inhibition of human MAO-A preincubated for 5 mins followed by addition of Kynuramine substrate and measured after 30 mins by plate reader method
T1 sequence (P21397 whole entry): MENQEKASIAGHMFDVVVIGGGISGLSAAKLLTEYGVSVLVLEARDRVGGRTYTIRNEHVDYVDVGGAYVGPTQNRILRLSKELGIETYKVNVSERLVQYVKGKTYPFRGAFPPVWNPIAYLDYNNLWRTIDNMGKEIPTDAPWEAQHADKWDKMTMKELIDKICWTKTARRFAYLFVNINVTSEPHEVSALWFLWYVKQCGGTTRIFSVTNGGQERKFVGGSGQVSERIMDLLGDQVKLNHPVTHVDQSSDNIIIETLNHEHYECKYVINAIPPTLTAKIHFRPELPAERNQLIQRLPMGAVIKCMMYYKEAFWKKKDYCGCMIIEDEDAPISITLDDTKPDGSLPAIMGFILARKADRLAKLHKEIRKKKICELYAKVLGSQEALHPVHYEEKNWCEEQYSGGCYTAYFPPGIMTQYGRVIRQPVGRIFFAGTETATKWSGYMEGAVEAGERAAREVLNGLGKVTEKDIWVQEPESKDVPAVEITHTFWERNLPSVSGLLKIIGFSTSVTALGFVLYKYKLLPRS

[3] = target: T2, Amine oxidase [flavin-containing] B (Homo sapiens, UniProt P27338); experiment: Mixed inhibition of human MAO-B assessed as increase of Km with decrease of Vmax using Kynuramine at 0.3 to 2 uM measured after 30 mins by plate reader method; details: 0.5 h, dose 0.3-2 µM
T2 sequence (P27338 whole entry): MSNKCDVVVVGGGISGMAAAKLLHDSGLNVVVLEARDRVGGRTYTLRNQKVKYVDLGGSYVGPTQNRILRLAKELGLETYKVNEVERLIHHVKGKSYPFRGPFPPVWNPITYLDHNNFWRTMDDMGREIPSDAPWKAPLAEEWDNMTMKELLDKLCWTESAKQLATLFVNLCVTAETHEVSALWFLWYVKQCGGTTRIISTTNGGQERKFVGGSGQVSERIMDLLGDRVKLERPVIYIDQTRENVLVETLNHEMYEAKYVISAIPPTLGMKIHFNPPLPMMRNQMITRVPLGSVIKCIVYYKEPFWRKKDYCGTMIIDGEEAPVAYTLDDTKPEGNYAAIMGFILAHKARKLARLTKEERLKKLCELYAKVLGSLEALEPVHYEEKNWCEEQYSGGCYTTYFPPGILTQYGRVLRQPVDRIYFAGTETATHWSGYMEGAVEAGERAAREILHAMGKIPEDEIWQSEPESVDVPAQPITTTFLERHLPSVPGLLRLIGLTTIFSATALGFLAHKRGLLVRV

[4] = target: Amyloid-beta precursor protein (Homo sapiens) (UniProt P05067); experiment: Inhibition of HFIP-pretreated amyloid beta (1 to 42) (unknown origin) self aggregation at 50 uM measured every 10 mins for 72 hrs by Thioflavin T flourimetric assay relative to control
Chain of Amyloid-beta precursor protein (Homo sapiens) (P05067 whole entry): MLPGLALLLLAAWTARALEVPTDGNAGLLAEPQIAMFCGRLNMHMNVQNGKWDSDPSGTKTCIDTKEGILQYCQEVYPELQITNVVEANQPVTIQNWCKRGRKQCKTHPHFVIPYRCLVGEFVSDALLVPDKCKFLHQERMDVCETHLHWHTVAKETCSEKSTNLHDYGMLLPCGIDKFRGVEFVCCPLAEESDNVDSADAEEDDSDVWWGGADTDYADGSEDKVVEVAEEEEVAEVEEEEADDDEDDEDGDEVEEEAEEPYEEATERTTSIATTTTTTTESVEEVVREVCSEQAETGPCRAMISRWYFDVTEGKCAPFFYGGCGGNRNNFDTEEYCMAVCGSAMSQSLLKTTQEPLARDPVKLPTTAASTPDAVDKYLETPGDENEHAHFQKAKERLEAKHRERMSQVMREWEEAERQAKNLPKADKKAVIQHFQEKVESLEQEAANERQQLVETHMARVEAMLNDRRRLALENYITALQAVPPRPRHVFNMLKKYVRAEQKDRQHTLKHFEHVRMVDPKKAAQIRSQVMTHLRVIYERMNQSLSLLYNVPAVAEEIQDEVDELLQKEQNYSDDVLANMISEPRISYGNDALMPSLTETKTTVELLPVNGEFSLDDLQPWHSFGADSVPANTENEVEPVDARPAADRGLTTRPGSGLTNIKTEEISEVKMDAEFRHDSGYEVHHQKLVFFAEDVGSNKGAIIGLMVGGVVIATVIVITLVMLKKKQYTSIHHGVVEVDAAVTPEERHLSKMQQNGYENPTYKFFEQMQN

[5] = Cytotoxicity against mouse SIM-A9 cells assessed as non-toxic concentration measured after 24 hrs by MTT assay; type: functional
Homo sapiens = species: Homo sapiens; experiment: Selectivity index, ratio of IC50 for human MAO-A to IC50 for human MAO-B using Kynuramine as substrate measured by plate reader method
[6] = target: T2, Amine oxidase [flavin-containing] B; experiment: Non-covalent inhibition of human MAO-B using Kynuramine as substrate measured upto 60 mins by plate reader method; details: 1 h
[7] = target: T2, Amine oxidase [flavin-containing] B; experiment: Reversible inhibition of human MAO-B using Kynuramine as substrate at pH 7 measured after 30 mins by plate reader method; details: pH 7, 0.5 h
[8] = target: T2, Amine oxidase [flavin-containing] B; experiment: Inhibition of human MAO-B preincubated for 5 mins followed by addition of Kynuramine substrate and measured after 30 mins by plate reader method
SH-SY5Y = experiment: Cytotoxicity against human SH-SY5Y cells measured after 24 hrs by MTT assay; type: functional, cell-based
[9] = Permeability of compound at pH 7.4 measured after 6 hrs by PAMPA assay
[10] = Metal chelating activity assessed as compound-Cu2+ complex formation measured by EPR-spectroscopy; type: functional
[11] = Toxicity in human SH-SY5Y cells assessed by changes in mitochondrial membrane potential at 0.1 to 100 uM measured after 24 hrs by JC-1 probe based fluorescence reader assay; type: cell-based; details: dose 0.1-100 µM
[12] = Toxicity in human SH-SY5Y cells assessed by intracellular dehydrogenase activity at 10 uM measured after 24 hrs by WST-1 assay; type: cell-based; details: read-out: Activity
[13] = Anti-inflammatory activity in mouse SIM-A9 cells assessed as decrease in LPS-induced TNF-alpha production at 4 uM preincubated for 1 hr followed by stimulation with LPS and measured after 23 hrs by ELISA assay; type: functional; parameters: scale not given: the % may be the effect or the level left; details: time 24 hrs
[14] = Toxicity in human SH-SY5Y cells assessed as change in respiratory states by measuring ROX at 0.1 to 100 uM measured after 24 hrs by respirometer; type: cell-based; details: dose 0.1-100 µM
[15] = Anti-inflammatory activity in mouse SIM-A9 cells assessed as decrease in LPS-induced IL-6 production at 4 uM preincubated for 1 hr followed by stimulation with LPS and measured after 23 hrs by ELISA assay; type: functional; parameters: scale not given: the % may be the effect or the level left; details: time 24 hrs
[16] = Toxicity in human SH-SY5Y cells assessed by intracellular dehydrogenase activity at 100 uM measured after 24 hrs by WST-1 assay; type: cell-based; details: read-out: Activity
[17] = Anti-inflammatory activity in mouse SIM-A9 cells assessed as decrease in LPS-induced TNF-alpha production at 8 uM preincubated for 1 hr followed by stimulation with LPS and measured after 23 hrs by ELISA assay; type: functional; parameters: scale not given: the % may be the effect or the level left; details: time 24 hrs
[18] = Radical scavenging activity of compound measured after 15 mins by ABTS radical scavenging activity in relative to clioquinol; type: functional
[19] = Toxicity in human SH-SY5Y cells assessed as change in respiratory states by measuring LEAK at 0.1 to 100 uM measured after 24 hrs by respirometer; type: cell-based; details: dose 0.1-100 µM
[20] = Anti-inflammatory activity in mouse SIM-A9 cells assessed as decrease in LPS-induced IL-6 production at 2 uM preincubated for 1 hr followed by stimulation with LPS and measured after 23 hrs by ELISA assay; type: functional; parameters: scale not given: the % may be the effect or the level left; details: time 24 hrs
[21] = Anti-inflammatory activity in mouse SIM-A9 cells assessed as decrease in LPS-induced TNF-alpha production at 2 uM preincubated for 1 hr followed by stimulation with LPS and measured after 23 hrs by ELISA assay; type: functional; parameters: scale not given: the % may be the effect or the level left; details: time 24 hrs
[22] = Toxicity in human SH-SY5Y cells assessed by glutathione depletion at 10 uM measured after 24 hrs by monochlorobimane based plate reader assay; type: cell-based
[23] = Toxicity in human SH-SY5Y cells assessed as change in respiratory states by measuring ETS at 0.1 to 100 uM measured after 24 hrs by respirometer; type: cell-based; details: dose 0.1-100 µM
[24] = Radical scavenging activity of compound in presence of Cu+2 measured after 15 mins by ABTS radical scavenging activity in relative to clioquinol; type: functional
[25] = Anti-inflammatory activity in mouse SIM-A9 cells assessed as decrease in LPS-induced IL-6 production at 8 uM preincubated for 1 hr followed by stimulation with LPS and measured after 23 hrs by ELISA assay; type: functional; parameters: scale not given: the % may be the effect or the level left; details: time 24 hrs
[26] = Toxicity in human SH-SY5Y cells assessed as change in respiratory states by measuring ROUTINE at 0.1 to 100 uM measured after 24 hrs by respirometer; type: cell-based; details: dose 0.1-100 µM
[27] = target: T2, Amine oxidase [flavin-containing] B; experiment: Mixed inhibition of human MAO-B using Kynuramine as substrate measured upto 60 mins by plate reader method; details: 1 h
[28] = target: T2, Amine oxidase [flavin-containing] B; experiment: Competitive inhibition of human MAO-B assessed as increase of Km with constant Vmax using Kynuramine at 0.05 to 0.2 uM measured after 30 mins by plate reader method; details: 0.5 h, dose 0.05-0.2 µM
[29] = Anti-inflammatory activity in mouse SIM-A9 cells assessed as decrease in LPS-induced IL-6 production at 1 ug/ml preincubated for 1 hr followed by stimulation with LPS and measured after 23 hrs by ELISA assay; type: functional; parameters: scale not given: the % may be the effect or the level left; details: dose 1 µg/ml; time 24 hrs
[30] = Anti-inflammatory activity in mouse SIM-A9 cells assessed as decrease in LPS-induced TNF-alpha production at 1 ug/ml preincubated for 1 hr followed by stimulation with LPS and measured after 23 hrs by ELISA assay; type: functional; parameters: scale not given: the % may be the effect or the level left; details: dose 1 µg/ml; time 24 hrs

| SMILES | IC50 [1] [µM] | IC50 [2] [µM] | inhibition [4] [%] | MNTD [5] [µM] | Selectivity Index (Homo sapiens) | IC50 [8] [µM] | IC50 (SH-SY5Y) [µM] | Papp at 6 h [9] [×10⁻⁶ cm/s] | further results |
| --- | --- | --- | --- | --- | --- | --- | --- | --- | --- |
| C#CCNC1=CC(=O)c2ccccc2C1=O | 34.6 | 9.81 | 24 | 4 | 36 | 0.27 | > 64 | 20.8 | inhibition (INH) [3]: Active; inhibition (INH) [6]: Active; inhibition (INH) [7]: Active |
| C#CCNC1=CC(=O)c2c(O)ccc(O)c2C1=O | 5.3 |  | 21.7 | 0.4 |  |  | 15 | 43.3 |  |
| C[C@H]1c2cccc(O)c2C(=O)C2=C(O)[C@]3(O)C(=O)C(C(N)=O)=C(O)[C@@H](N(C)C)[C@@H]3[C@@H](O)[C@@H]21 |  |  | 93.1 |  |  |  |  |  |  |
| CNC(=C[N+](=O)[O-])NCCSCc1ccc(CN(C)C)o1 [RANITIDINE] |  |  |  |  |  |  |  | 0.04 |  |
| C#CCNC1=CC(=O)c2cccc(OCc3ccccc3)c2C1=O | > 32 |  | 17.5 | 8 |  |  | > 64 | 25.5 | Activity [10]: Active; Activity [11]: Non-Toxic; viability at 24 h, 10 µM [12]: 89%; Activity [13]: 74%; Activity [14]: Non-Toxic; Activity [15]: 74%; viability at 24 h, 100 µM [16]: 88%; Activity [17]: 46%; Activity [18]: 15%; Activity [19]: Non-Toxic; Activity [20]: 95%; Activity [21]: 76%; Activity [22]: 89%; Activity [23]: Non-Toxic; Activity [24]: 10%; Activity [25]: 49%; Activity [26]: Non-Toxic |
| C#CCN(C)C1=C(Cl)C(=O)c2ccccc2C1=O | 7.3 | 10 | 40.5 | 2 | 71 | 0.14 | 3.3 | 14 | Activity [10]: Active; Activity [18]: Active; Activity [24]: 5% |
| C#CCNC1=C(Cl)C(=O)c2ccccc2C1=O | 10.4 | 7.76 | 18.4 | 4 | 155 | 0.05 | 4.6 | 29.4 | Activity [10]: Active; Activity [18]: Active; inhibition (INH) [27]: Active; inhibition (INH) [28]: Active |
| C#CCN(C)C1=CC(=O)c2ccccc2C1=O | 36.1 | 6.64 | 67.4 | 8 | 0.77 | 8.62 | 22 | 18.5 |  |
| C#CCNC1=CC(=O)c2cccc(OCC)c2C1=O | > 64 |  | 11.2 | 32 |  |  | > 64 | 18.5 |  |
| C[C@@H]1C[C@H]2[C@@H]3CCC4=CC(=O)C=C[C@]4(C)[C@@]3(F)[C@@H](O)C[C@]2(C)[C@@]1(O)C(=O)CO [DEXAMETHASONE] |  |  |  |  |  |  |  |  | Activity [29]: 40%; Activity [30]: 60% |
| C#CCNC1=CC(=O)c2cccc(OC)c2C1=O | 116 |  | 15.5 | 8 |  |  | > 32 | 18.8 |  |
